# Results taken from publication PMC2826609 (Peptides, 2009).
# Positions of bridges follow the written chain, without caps; N, C: chain ends. Residues, ends and D or L forms follow the SMILES beside them.
# Assays:
# [1] = biological target: Aedes aegypti allatostatin-C receptor AeAS-CrA (Aedes aegypti, UniProt A0A411JKC3); type: cell-based
# [2] = biological target: Aedes aegypti allatostatin-C receptor AeAS-CrB (Aedes aegypti, UniProt A0A411JKA7); type: cell-based
Compound,EC50 [1] [nM],EC50 [2] [nM],"FLIPR signal, peptide selectivity (AeAS-CrA) ([1]; AeAS-CrA, HEK293T/Gα16gust44 cells, results not shown)","FLIPR signal, peptide selectivity (AeAS-CrB) ([2]; AeAS-CrB, HEK293T/Gα16gust44 cells, results not shown)"
CC[C@H](C)[C@H](NC(=O)[C@@H](N)CCC(N)=O)C(=O)N[C@@H](CCCNC(=N)N)C(=O)N[C@@H](Cc1ccc(O)cc1)C(=O)N[C@@H](CCCNC(=N)N)C(=O)N[C@@H](CCC(N)=O)C(=O)N[C@H]1CSSC[C@@H](C(=O)N[C@@H](Cc2ccccc2)C(=O)O)NC(=O)[C@H](CO)NC(=O)[C@H]([C@@H](C)CC)NC(=O)[C@@H]2CCCN2C(=O)[C@H](CC(N)=O)NC(=O)[C@H](Cc2ccccc2)NC(=O)[C@H](Cc2ccc(O)cc2)NC1=O [AS-C] (H-QIRYRQCYFNPISCF-OH; disulfide 7-14),89 ± 18.5,27.7 ± 7.2,–,–
APFRNSEMMTARGF [AT],–,–,no signal was detected,no signal was detected
